# “Also recorded” adds a separate entry of the source. Read-outs that look alike come from different tables or passages of the source.
# Assays:
# PKC-ζ [1] = target: T1, PKC-ζ (Homo sapiens, UniProt Q05513); conditions: cited from earlier work
# T1 construct: harvested and whole cell extracts were prepared; endogenous in cells; host or cells: HT-29
# T1 sequence (Q05513 1-592): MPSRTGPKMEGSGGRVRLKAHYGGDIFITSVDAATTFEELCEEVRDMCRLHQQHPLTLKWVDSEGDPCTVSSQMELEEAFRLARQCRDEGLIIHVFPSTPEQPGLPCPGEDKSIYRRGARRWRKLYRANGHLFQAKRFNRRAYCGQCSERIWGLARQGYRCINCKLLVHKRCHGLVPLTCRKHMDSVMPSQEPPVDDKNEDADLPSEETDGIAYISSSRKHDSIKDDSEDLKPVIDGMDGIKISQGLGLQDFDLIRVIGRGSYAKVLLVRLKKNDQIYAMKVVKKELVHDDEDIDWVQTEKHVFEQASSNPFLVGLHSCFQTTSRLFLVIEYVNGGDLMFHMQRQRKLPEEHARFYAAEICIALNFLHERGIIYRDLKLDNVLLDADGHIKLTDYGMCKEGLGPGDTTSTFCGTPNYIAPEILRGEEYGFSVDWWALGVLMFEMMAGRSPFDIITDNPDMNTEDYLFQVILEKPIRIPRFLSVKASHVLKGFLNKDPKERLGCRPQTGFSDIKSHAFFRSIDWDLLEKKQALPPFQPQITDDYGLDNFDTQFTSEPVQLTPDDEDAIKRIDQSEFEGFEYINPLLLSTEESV
# [2] = test system: HT-29 colon cancer cell line; assay: HT-29 colon cancer cell proliferation, viable cell count (Tryphan blue exclusion, scepter); type: cell-based; conditions: for HT-29 cell proliferation at 0.25 μM / HT-29 cell proliferation at 1.5 μM: after three days of treatment; for effect on HT-29 cell proliferation with concentration: 24-72 hours, several concentrations; for IC50: HT-29, three days of treatment, read-out: decrease of growth of HT-29 cells by 50 percent (IC50)
# Method: (§1) The colon cancerous cell line, HT-29 and normal colon epithelial cells, CCD18CO were obtained from American Type Tissue Culture Collection. The HT-29 cells and CCD18CO cells were subculture and maintained in T75 flasks containing McCoy's media and Eagle's Minimum Essential Media respectively, both of the flasks were supplemented with 10% FBS (Fetal Bovine Serum) and 1% antibiotics (Penicillin 10 U/ml and streptomycin 10 mg/ml). Cells were incubated at 37° C. and 5% CO2. After few days of incubation following subculture, cells were used at 70-80% confluency for the experiment.
# Cells (3.0×10^4/well) were grown as monolayer on 6 wells plate. […] Cells are then washed (2 ml 2× DPBS buffer), trypsinized, resuspended in McCoy's 5A media and counted with hemocytometer, Scepter & MTT assay.
# After starting treatment, viable cells were counted at each 24 hours interval using Tryphan blue exclusion assay and scepter. The data represents n=4 independent experiments.
# HT-29 cells were treated with five different concentrations of DNDA for 24-72 hours. After starting treatment, viable cells were counted at each 24 hours interval using Tryphan blue exclusion assay and scepter. The data represents n=4 independent experiments.
# HT-29 cells were treated with five different concentrations of ICA-1 for 24-72 hours. After starting treatment, viable cells were counted at each 24 hours interval using Tryphan blue exclusion assay and scepter. The data represents n=4 independent experiments.
# HT-29 cells were treated with four different concentrations of ζ-Stat for 24-72 hours. After starting treatment, viable cells were counted at each 24 hours interval using Tryphan blue exclusion assay and scepter. The data represents n=4 independent experiments.
# PKC-ι [3] = target: T2, PKC-ι (Homo sapiens, UniProt P41743); conditions: cited from earlier work
# T2 construct: harvested and whole cell extracts were prepared; endogenous in cells; host or cells: HT-29
# T2 sequence (P41743 1-596): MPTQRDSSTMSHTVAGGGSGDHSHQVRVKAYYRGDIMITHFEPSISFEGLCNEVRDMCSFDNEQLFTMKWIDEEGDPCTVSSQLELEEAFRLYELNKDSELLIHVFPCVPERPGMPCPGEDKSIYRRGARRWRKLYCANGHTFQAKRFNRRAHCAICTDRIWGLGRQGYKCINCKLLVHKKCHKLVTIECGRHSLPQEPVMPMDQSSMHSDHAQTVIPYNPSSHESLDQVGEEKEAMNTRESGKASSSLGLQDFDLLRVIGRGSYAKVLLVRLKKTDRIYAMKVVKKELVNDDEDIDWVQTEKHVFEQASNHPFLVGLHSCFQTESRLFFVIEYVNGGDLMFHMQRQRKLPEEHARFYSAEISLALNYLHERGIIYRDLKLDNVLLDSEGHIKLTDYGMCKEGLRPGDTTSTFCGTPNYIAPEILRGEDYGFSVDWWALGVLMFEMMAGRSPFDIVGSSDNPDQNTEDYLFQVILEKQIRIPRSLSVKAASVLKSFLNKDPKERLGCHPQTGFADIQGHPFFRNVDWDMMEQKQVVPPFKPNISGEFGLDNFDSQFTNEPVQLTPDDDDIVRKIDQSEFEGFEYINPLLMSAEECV
# [4] = test system: CCD18CO normal colorectal cells; assay: Western blot of survival and apoptotic proteins in CCD18CO normal cells; type: cell-based; conditions: 7 μM, 72 hours, immunoblot
# Method: (§2) CCD18CO cells were treated with 7 μM ICA-I or 7 μM ζ-Stat, respectively, for 72 hours, harvested and whole cell lysates were prepared. Equal amounts (40 μg) of protein were loaded on SDS-PAGE followed by immunoblotting for PKC-ι, PKC-ζ, Caspase-3, BCL-XL, and β-actin to see the effect of specific aPKC inhibition on survival and apoptotic proteins. Data represents n=3 independent experiments.
# [5] = test system: CCD18CO normal colon epithelial cell line; assay: MTT assay on CCD18CO normal colon epithelial cells; type: cell-based
# Method: as §1
# To establish the efficacy of ζ-Stat as a specific inhibitor of PKC-ζ, the effect of ζ-Stat on CCD18CO normal colon epithelial cell line was tested. CCD18CO normal epithelial cell line cells were treated with four different concentrations of ζ-Stat for three consecutive days followed by incubation with MTT reagent and taking absorbance reading at each half an hour interval for three hours at 577 nm using microplate reader. The data represents n=3 independent experiments.
# The percentage of inhibition of CCD18C0 cell growth was measured after three hours of MTT incubation. […] The data represents n=3 independent replicates (FIG. 19).
# PKC-ζ [6] = target: T1, PKC-ζ; assay: Western blot of PKC-ζ expression and phosphorylation in HT-29 cells; type: cell-based; conditions: HT-29, 72 hours, increasing concentrations, immunoblot
# Method: (§3) Cells were cultured (9.0×10^4) in 100 mm cell culture flasks. […] Equal volume of sterile water (vehicle control) as the volume of drug was added in the control also. Treatment was continued for three consecutive days. Total cell-lysates were prepared and subjected to western blot analysis for aPKC analysis.
# (§4) Because PKC-ι and PKC-ζ are homologous (84%) in terms of amino acids sequence of their catalytic domain [7], the specificity of the effect of ζ-Stat on PKC-ζ was tested by performing western blot analysis. HT-29 colorectal cancerous cells were treated with seven different concentrations of ζ-Stat for 72 hours, harvested and whole cell extracts were prepared. Equal amounts (40 μg) of protein were loaded on SDS-PAGE followed by immunoblotting for pPKC-ι(T555), PKC-ι, pPKC-ζ(T410), PKC-ζ, pAKT(S473) and β-actin to examine the effect of ζ-Stat on those protein levels. Data represents n=3 independent observations.
# PKC-ι [7] = target: T2, PKC-ι; assay: Western blot of PKC-ι expression and phosphorylation in HT-29 cells; type: cell-based; conditions: HT-29, 72 hours, increasing concentrations, immunoblot
# Method: as §3, §4
# [8] = test system: HT-29 colorectal cancer cells; assay: Western blot of survival and apoptotic proteins (Caspase-3, BCL-XL, Survivin) in HT-29 cells; type: cell-based; conditions: HT-29, 7 μM, 72 hours, immunoblot
# Method: as §2, with “HT-29 colorectal cancer” for “CCD18CO”, “ζ-Stat” for “ζ-Stat, respectively,”, “for” for “for PKC-ι, PKC-ζ,”, “BCL-XL, Survivin” for “BCL-XL,”, “determine” for “see”, “effects” for “effect”
IC50 [2] [nM],"IC50 ([2]; Homo sapiens, 72 h) [nM]",SMILES,inhibition of PKC-ζ (PKC-ζ [1]),HT-29 cell proliferation at 0.25 μM [2],HT-29 cell proliferation at 1.5 μM [2],effect on HT-29 cell proliferation with concentration [2],inhibition of PKC-ι (PKC-ι [3]),toxicity to normal epithelial cells CCD18CO [4],"effect on normal colon epithelial cells CCD18CO (cell number / toxicity) ([5]; 1.0-3.0 μM, three consecutive days, MTT)",percent inhibition of CCD18CO cell growth ([5]; after three hours of MTT incubation),level / phosphorylation of PKC-ζ (PKC-ζ [6]),effect on PKC-ι (PKC-ι [7]),level of pro-survival proteins [8],inhibition of HT-29 cells ([2]; treatment over three days)
~780,,"Nc1c(S(=O)(=O)O)cc2cc(S(=O)(=O)O)ccc2c1N [DNDA, 3,4, diamino-2,7-naphthalene disulfonic acid]",about 80%,slight decrease in proliferation,dramatic decrease in proliferation,decrease colon cancer cell proliferation in a dose-dependent manner,about 20%,,,,,,,
~950,,"NC(=O)c1ncn(C2CC(COP(=O)(O)O)C(O)C2O)c1N (stereo not drawn) [ICA-1, [4-(5-amino-4-carbamoylimidazol-1-yl)-2,3-dihydroxycyclopentyl] methyl dihydrogen phosphate]",,slight increase in cell proliferation,dramatic decrease in cell proliferation,decrease colon cancer cell proliferation in a dose-dependent manner,,not toxic,,,,,,
,~1400,"O=S(=O)(O)c1cc(O)c2c(S(=O)(=O)O)cc(S(=O)(=O)O)cc2c1 [ζ-Stat, 8-hydroxy-1,3,6-naphthalenetrisulfonic acid]",,,dramatic decrease in cell proliferation,inhibits colon cancer cell proliferation in a dose-dependent manner,,not toxic,not toxic; also recorded: did not change,less than 10%,decrease the levels of total and phosphorylated PKC-ζ; also recorded: selective decrease in the phosphorylation of PKC-ζ,without affecting PKC-ι; also recorded: specifically inhibits PKC-ζ not PKC-ι,decreases the level of pro-survival proteins,about 60%
